Measurements: patent US8916557B2, “Substituted 4-Aryl-N-phenyl-1,3,5-triazin-2-amines” (Bayer Intellectual Property GmbH, priority 2011, dated 2014)

Tests used:
CDK9/CycT1 = target: T1, CDK9/CycT1 (Homo sapiens, UniProt P50750); test: CDK9/CycT1 kinase assay (TR-FRET); format: biochemical; settings: Method 1, 10 μM ATP
T1 construct: Recombinant full-length His-tagged human CDK9 and CycT1; His; purchased Invitrogen PV4131; host or cells: insect cells
Summary of the method: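 Full-length His-tagged human CDK9/CycT1 (insect-cell expressed), 15 min compound pre-incubation, then 25 min at 22 °C with 10 µM ATP (final) and 1 µM biotinylated peptide (final) in Tris pH 8.0/MgCl2 buffer. Phospho-substrate detected by TR-FRET (anti-RB pSer807/pSer811, Eu anti-mouse IgG, streptavidin-XL665); 665/622 nm emission ratio as read-out.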

CDK2/CycE = target: T2, CDK2/CycE (Homo sapiens, UniProt P24941); test: CDK2/CycE kinase assay (TR-FRET); format: biochemical; settings: Method 2, 10 μM ATP
T2 construct: GST; purchased ProQinase GmbH (Freiburg, Germany); host or cells: insect cells (Sf9)
Summary of the method: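 TR-FRET read-out: emission ratio 665/620 nm via anti-RB(pSer807/pSer811) antibody, Eu-anti-mouse IgG and streptavidin-XL665. Kinase reaction: insect-cell GST-CDK2/CycE, compound pre-bound 15 min, 10 μM ATP final, 0.75 μM biotin-peptide, 25 min, 22 °C, pH 8.0.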

Caco-2 permeation assay = format: in vitro ADME; settings: human
Procedure: Cells were maintained at 37° C. in a humified 5% CO2 atmosphere. Medium was changed every 2-3 day. Before running the permeation assay, the culture medium was replaced by a FCS-free hepes-carbonate transport buffer (pH 7.2). For assessment of monolayer integrity the transepithelial electrical resistance (TEER) was measured. Test compounds were predissolved in DMSO and added either to the apical or basolateral compartment in final concentration of 2 μM in transport buffer. Before and after 2 h incubation at 37° C. samples were taken from both compartments. Analysis of compound content was done after precipitation with methanol by LC/MS/MS analysis. Apparent permeability (Papp) was calculated in the apical to basolateral (Papp A→B) and basolateral to apical (Papp B→A) directions. The apparent permeability was calculated using following equation: Papp=(Vr/Po)(1/S)(P2/t)
Where Vr is the volume of medium in the receiver chamber, Po is the measured peak area or height of the test drug in the donor chamber at t=o, S the surface area of the monolayer, P2 is the measured peak area of the test drug in the acceptor chamber after 2 h of incubation, and t is the incubation time. The efflux ratio basolateral (B) to apical (A) was calculated by dividing the Papp B−A by the Papp A-B. In addition the compound recovery was calculated. The following reference compounds were used for the classification of the permeability class: Antipyrine, Pyrazosin, Verapamil, Fluvastatin, Cimetidine, Ranitidine, Atenolol, Sulfasalazine.

[1] = tested on: HeLa human cervical tumour cells; test: Proliferation assay (crystal violet), HeLa; format: cell-based; settings: read-out: Inhibition of HeLa cell proliferation
[2] = tested on: HeLa-MaTu-ADR, multidrug-resistant human cervical carcinoma cells; test: Proliferation assay (crystal violet), HeLa-MaTu-ADR; format: cell-based; settings: read-out: Inhibition of HeLa/MaTu/ADR cell proliferation
Procedure: (§1) Cultivated tumour cells (NCI-H460, human non-small cell lung carcinoma cells, ATCC HTB-177; DU 145, hormone-independent human prostate carcinoma cells, ATCC HTB-81; HeLa-MaTu, human cervical carcinoma cells, EPO-GmbH, Berlin; HeLa-MaTu-ADR, multidrug-resistant human cervical carcinoma cells, EPO-GmbH, Berlin; HeLa human cervical tumour cells, ATCC CCL-2; Caco-2 human colorectal carcinoma, ATCC HTB-37; B16F10 mouse melanoma cells, ATCC CRL-6475) were plated at a density of 5000 cells/well (DU145, HeLa-MaTu-ADR), 3000 cells/well (NCI-H460, HeLa-MaTu, HeLa), 1500 cells/well (Caco-2), or 1000 cells/well (B16F10) in a 96-well multititer plate in 200 μL of their respective growth medium supplemented 10% fetal calf serum. After 24 hours, the cells of one plate (zero-point plate) were stained with crystal violet (see below), while the medium of the other plates was replaced by fresh culture medium (200 μl), to which the test substances were added in various concentrations (0 μM, as well as in the range of 0.001-10 μM; the final concentration of the solvent dimethyl sulfoxide was 0.5%). The cells were incubated for 4 days in the presence of test substances. Cell proliferation was determined by staining the cells with crystal violet: the cells were fixed by adding 20 μl/measuring point of an 11% glutaric aldehyde solution for 15 minutes at room temperature. After three washing cycles of the fixed cells with water, the plates were dried at room temperature. The cells were stained by adding 100 μl/measuring point of a 0.1% crystal violet solution (pH 3.0). After three washing cycles of the stained cells with water, the plates were dried at room temperature. The dye was dissolved by adding 100 μl/measuring point of a 10% acetic acid solution. The extinction was determined by photometry at a wavelength of 595 nm. The change of cell number, in percent, was calculated by normalization of the measured values to the extinction values of the zero-point plate (=0%) and the extinction of the untreated (0 μm) cells (=100%). The IC50 values were determined by means of a 4 parameter fit.

[3] = tested on: DU 145, hormone-independent human prostate carcinoma cells; test: Proliferation assay (crystal violet), DU 145; format: cell-based; settings: DU145 cells, read-out: Inhibition of DU145 cell proliferation
[4] = tested on: B16F10 mouse melanoma cells; test: Proliferation assay (crystal violet), B16F10; format: cell-based; settings: B16-F10, read-out: Inhibition of B16F10 cell proliferation
Procedure: as §1

[5] = tested on: NCI-H460, human non-small cell lung carcinoma cells; test: Proliferation assay (crystal violet), NCI-H460; format: cell-based; settings: read-out: Inhibition of H460 cell proliferation (activity range)
Procedure: as §1

[6] = tested on: Caco-2 human colorectal carcinoma; test: Proliferation assay (crystal violet), Caco-2; format: cell-based; settings: CACO-2 cells, read-out: Inhibition of CACO-2 cell proliferation

T1 sequence (P50750 whole entry): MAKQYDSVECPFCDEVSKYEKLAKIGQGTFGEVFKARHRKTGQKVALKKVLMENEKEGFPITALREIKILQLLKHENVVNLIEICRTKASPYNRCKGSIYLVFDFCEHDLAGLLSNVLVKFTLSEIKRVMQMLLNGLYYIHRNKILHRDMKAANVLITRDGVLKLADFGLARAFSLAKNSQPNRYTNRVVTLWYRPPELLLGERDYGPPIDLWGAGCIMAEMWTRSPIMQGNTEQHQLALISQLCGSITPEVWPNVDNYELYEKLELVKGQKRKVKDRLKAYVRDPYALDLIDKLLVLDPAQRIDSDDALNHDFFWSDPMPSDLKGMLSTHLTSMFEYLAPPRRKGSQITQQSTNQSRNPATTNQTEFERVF
T1 sequence (O60563 whole entry partner): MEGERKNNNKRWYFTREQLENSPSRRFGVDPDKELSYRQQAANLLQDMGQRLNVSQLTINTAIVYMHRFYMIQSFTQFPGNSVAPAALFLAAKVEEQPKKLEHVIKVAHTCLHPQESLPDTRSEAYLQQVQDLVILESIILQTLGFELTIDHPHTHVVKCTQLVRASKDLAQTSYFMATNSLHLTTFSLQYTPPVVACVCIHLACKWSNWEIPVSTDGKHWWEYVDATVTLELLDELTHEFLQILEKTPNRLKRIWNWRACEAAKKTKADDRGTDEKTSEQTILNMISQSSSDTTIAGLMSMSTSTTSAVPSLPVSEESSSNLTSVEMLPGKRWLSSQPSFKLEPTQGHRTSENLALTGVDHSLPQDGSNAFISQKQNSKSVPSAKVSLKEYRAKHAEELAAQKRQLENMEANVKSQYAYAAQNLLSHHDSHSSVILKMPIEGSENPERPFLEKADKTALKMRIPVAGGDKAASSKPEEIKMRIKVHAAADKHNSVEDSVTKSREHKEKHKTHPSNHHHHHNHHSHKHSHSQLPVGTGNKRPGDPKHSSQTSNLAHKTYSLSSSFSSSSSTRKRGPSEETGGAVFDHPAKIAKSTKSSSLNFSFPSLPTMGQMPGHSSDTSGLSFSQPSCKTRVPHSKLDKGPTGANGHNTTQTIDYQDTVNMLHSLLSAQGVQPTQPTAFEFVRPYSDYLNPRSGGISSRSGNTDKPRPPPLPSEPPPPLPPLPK

Row | Structure (SMILES) | IC50 (CDK9/CycT1) | IC50 (CDK2/CycE) | efflux ratio at 2 h, 2 μM (Caco-2 permeation assay; Caco-2, pH 7.2) | Papp A→B at 2 h, 2 μM (Caco-2 permeation assay; Caco-2 monolayer, 2 μM test compound, 2 h, pH 7.2, read-out: Papp A-B (Mari)) | Papp B→A at 2 h, 2 μM (Caco-2 permeation assay; Caco-2 monolayer, 2 μM test compound, 2 h, pH 7.2, read-out: Papp B-A (Mari)) | IC50 [1] | IC50 [2] | IC50 [3] | IC50 [4] | IC50 [5] | IC50 [6]
1 | CS(=O)(=O)Cc1cccc(Nc2ncnc(-c3ccccc3OCc3cccc(F)c3)n2)c1 [Example 26, 4-{2-[(3-Fluorobenzyl)oxy]phenyl}-N-{3-[(methylsulfonyl)methyl]phenyl}-1,3,5-triazin-2-amine] | 3 nM | 290 nM | 0.43 | 16.9 ×10⁻⁶ cm/s | 7.2 ×10⁻⁶ cm/s | 530 nM |  |  |  |  | 
2 | CS(=O)(=O)Cc1cccc(Nc2ncnc(-c3ccc(F)cc3OCc3ccc(F)c(F)c3F)n2)c1 [Example 72, 4-{4-Fluoro-2-[(2,3,4-trifluorobenzyl)oxy]-phenyl}-N-{3-[(methylsulfonyl)methyl]-phenyl}-1,3,5-triazin-2-amine] | 7 nM | ≥ 20000 nM |  |  |  | 1160 nM |  |  |  |  | 
3 | CS(=O)(=O)Cc1cccc(Nc2ncnc(-c3ccc(F)cc3OCc3ccc(C(F)(F)F)cc3)n2)c1 [Example 73, 4-(4-Fluoro-2-{[4-(trifluoromethyl)benzyl]-oxy}phenyl)-N-{3-[(methylsulfonyl)-methyl]phenyl}-1,3,5-triazin-2-amine] | 12 nM | ≥ 20000 nM |  |  |  | 1100 nM |  |  |  |  | 
4 | CS(=O)(=O)Cc1cccc(Nc2ncnc(-c3ccc(F)cc3OCc3cccnc3)n2)c1 [Example 74, 4-[4-Fluoro-2-(pyridin-3-ylmethoxy)phenyl]-N-{3-[(methylsulfonyl)methyl]phenyl}-1,3,5-triazin-2-amine] | 7 nM | 570 nM |  |  |  | 1100 nM |  |  |  |  | 
5 | CS(=O)(=O)Cc1cccc(Nc2ncnc(-c3ccc(F)cc3OCc3ccc(Cl)cc3)n2)c1 [Example 76, 4-{2-[(4-Chlorobenzyl)oxy]-4-fluorophenyl}-N-{3-[(methylsulfonyl)methyl]phenyl}-1,3,5-triazin-2-amine] | 6 nM | 710 nM |  |  |  | 1000 nM |  |  |  |  | 
6 | Cc1ccc(COc2cc(F)ccc2-c2ncnc(Nc3cccc(CS(C)(=O)=O)c3)n2)cc1 [Example 77, 4-{4-Fluoro-2-[(4-methylbenzyl)oxy]phenyl}-N-{3-[(methylsulfonyl)-methyl]phenyl}-1,3,5-triazin-2-amine] | 13 nM | 1600 nM |  |  |  | 1000 nM |  |  |  |  | 
7 | C[C@@H](Oc1cc(F)ccc1-c1ncnc(Nc2cccc(CS(C)(=O)=O)c2)n1)c1ccccc1 [Example 79, 4-{4-Fluoro-2-[(1R)-1-phenylethoxy]phenyl}-N-{3-[(methylsulfonyl)methyl]phenyl}-1,3,5-triazin-2-amine] | 3 nM | 440 nM |  |  |  | 920 nM |  |  |  |  | 
8 | CS(=O)(=O)Cc1cccc(Nc2ncnc(-c3ccc(F)cc3OCc3cccc(F)c3F)n2)c1 [Example 80, 4-{2-[(2,3-Difluorobenzyl)-oxy]-4-fluorophenyl}-N-{3-[(methylsulfonyl)-methyl]phenyl}-1,3,5-triazin-2-amine] | 21 nM | 2000 nM |  |  |  | 890 nM |  |  |  |  | 
9 | CS(=O)(=O)Cc1cccc(Nc2ncnc(-c3ccc(F)cc3OCc3cc(F)cc(F)c3F)n2)c1 [Example 84, 4-{4-Fluoro-2-[(2,3,5-trifluorobenzyl)oxy]phenyl}-N-{3-[(methylsulfonyl)methyl]-phenyl}-1,3,5-triazin-2-amine] | 3 nM |  |  |  |  | 340 nM | 280 nM | 350 nM | 490 nM | 310 nM | 320 nM
10 | CS(=O)(=O)Cc1cccc(Nc2ncnc(-c3ccc(F)cc3OCc3ccc(F)c(F)c3)n2)c1 [Example 86, 4-{2-[(3,4-Difluoro-benzyl)oxy]-4-fluorophenyl}-N-{3-[(methylsulfonyl)-methyl]phenyl}-1,3,5-triazin-2-amine] | 6 nM |  |  |  |  | 250 nM | 220 nM | 230 nM | 250 nM | 270 nM | 200 nM
